From patent US20040062729A1, “Photoprotective sunscreen compositions comprising 1,3,5-triazine compounds and triesters of benenetricarboxylic acids” (SOCIETE L'OREAL S.A., priority 2001, published 2004)

Details: 5 g 2,4-bis{[4-2-ethylhexyl-oxy)]-2-hydroxy]phenyl}-6-(4-methoxyphenyl)-1,3,5-triazine in 20 g solvent oil, heated to 83° C., cooled
Experimental: The solubilization time of 2,4-bis{[4-2-ethylhexyl-oxy)]-2-hydroxy]phenyl}-6-(4-methoxyphenyl)-1,3,5-triazine (screening agent) in various solvents is determined by means of the following test:
at room temperature, 20 g of solvent are added to 5 g of screening agent,
the mixture thus obtained is heated to 83° C. by means of a water bath,
after cooling, the possible presence of crystals is then observed under a microscope, between a slide and glass coverslips, in polarized light.

Compound	Presence of crystals, storage in the cold (+4° C.) for 4 days	Presence of crystals, storage at room temperature for 4 days
CCCCCCCCCCCCCCCC(=O)OCC(CC)CCCC (stereo not shown) [2-Ethylhexyl palmitate]	Crystals	Crystals
CCCCCCCCC(CCCCCC)C(=O)O (stereo not shown) [2-Hexyldecanoic acid]	Crystals	Crystals
CCCCCCCCCCC(CO)CCCCCCCC (stereo not shown) [2-Octyldodecanol]	Crystals	Crystals
C[Si]1(C)O[Si](C)(C)O[Si](C)(C)O[Si](C)(C)O[Si](C)(C)O1 [Cyclopentadimethylsiloxane]	Crystals	Crystals
CCCCC(CC)COC(=O)CCCCC(=O)OCC(CC)CCCC (stereo not shown) [Di(2-ethylhexyl) adipate]	Crystals	Crystals
CO[C@H]1CO[C@H]2[C@@H]1OC[C@H]2OC [Dimethyl isosorbide]	Crystals	Crystals
CCCCCCCCOC(=O)CC(O)C(=O)OCCCCCCCC (stereo not shown) [Dioctyl malate]	Crystals	Crystals
CC(CC(=O)OCC(COC(=O)CC(C)CC(C)(C)C)OC(=O)CC(C)CC(C)(C)C)CC(C)(C)C (stereo not shown) [Glyceryl triisononanoate]	Crystals	Crystals
CCCCCCCCC(CO)CCCCCC (stereo not shown) [Isocetyl alcohol, 2-hexyldecanol]	Crystals	Crystals
CC(C)CCCCCCCOC(=O)C(C)(C)C [Isodecyl neopentanoate]	Crystals	Crystals
CCCCCCCCCCCCCC(C)C [Isohexadecane]	Crystals	Crystals/Cloudy
CC(C)CCCCCCOC(=O)CCCCCC(C)C [Isononyl isononanoate]	Crystals	Crystals
CCCCC(CC)C(=O)OCC(C)(C)COC(=O)C(CC)CCCC (stereo not shown) [Neopentyl glycol di-2-ethylhexanoate]	Crystals	Crystals
CCCCCCCC/C=C\CCCCCCCCO [Oleyl alcohol]	Crystals	Crystals
Oxypropylenated butanediol (10 PO)	Crystals	Crystals
Oxypropylenated stearyl alcohol	Crystals	Crystals
Tridecyl trimellitate	Absence of	Absence of
